# Results as given in publication PMC9053816, “A polypeptide model for toxic aberrant proteins induced by aminoglycoside antibiotics” (PLoS ONE, 2022).
# “Also recorded” adds a separate entry of the source. Like-named read-outs stand apart in the source and are kept apart here.
# How the values were obtained:
# [1] = tested on: E. coli BL21; assay: Cell viability (colony counts / spot dilution on LB agar); format: cell-based, Escherichia coli
# Description: (§1) All growth studies were performed in Luria-Bertani (LB) broth containing Penicillin G (150 μg/ml), using E. coli BL21 as the host strain except where noted. Frozen stocks of cell strains were first grown overnight at 30°C, without shaking, in 2 ml of LB containing PenG. The starter cultures were then diluted 1:100 in 3.5 ml of LB containing PenG, in plastic 15x90 mm tubes with loose-fitting caps, and the tubes were then tilted about 15–20 degrees from vertical and incubated at 37°C with shaking (300 rpm). Cell growth for all experiments except those shown in Fig 1 was monitored at the indicated times by measuring the optical density of culture samples (diluted 1:10 in saline) at 600 nm, using a Perkin Elmer Lambda 14 UV/VIS spectrophotometer and semi-micro glass cuvettes (1 ml sample volume). For the experiments shown in Fig 1, OD600 measurements were performed on 200 μl of undiluted culture using a 96-well plate reader. […] To measure cell viability, culture samples were serially diluted in LB broth, mixed with molten top agar and plated on LB agar containing PenG. The number of colonies was then counted after overnight incubation of plates at 37°C.
# Supplementary file pone.0258794.s001.tif: S1 Fig Bactericidal effect of Kanamycin. Samples of an E. coli BL21 culture growing in LB broth were treated at early log phase (T = 0) with Cm (30 μg/ml) or Kan (50 μg/ml). After further incubation at 37°C for 30 or 60 min, samples of the untreated (UT) and antibiotic-treated cultures were diluted (serial 1:10), and 3 μl of each dilution was spotted onto an LB agar plate. The plate was then photographed after incubation overnight at 37°C. (TIF) Click here for additional data file.
# [2] = tested on: E. coli BL21 cells; assay: Hoechst 33342 uptake by fluorescence microscopy; format: cell-based, Escherichia coli
# Description: (§2) Culture samples (0.3 ml) collected at the indicated times were centrifuged and the cell pellets were resuspended in 20–100 μl of Tris-buffered saline pH 8 (TBS) and held on ice. Cell suspensions were then stained with 1 μl of Hoechst 33342 (10 mg/ml stock solution was first diluted 1:100 in TBS). After incubation for 10 min on ice, 2 μl samples of cell suspension were mounted on coverslides using agarose blocks as described. Cells were then examined by epi-fluorescence microscopy, using a Zeiss Axiophot and a 63X oil immersion lens. Exposure times for 2-channel images (both transmitted and reflected light) were set automatically using on-board Zen 2011 software. In some experiments as noted, exposure times for reflected light images were fixed at 1 s, for comparison of relative fluorescence intensity. Brightfield images of E. coli cell aggregates were taken with a Nikon Eclipse T2 inverted microscope using a 20X lens and laser-based LED white light source, located at the Brookhaven National Laboratory Center for Functional Nanomaterials.
# [3] = tested on: E. coli BL21 nucleoids; assay: Nucleoid conformation by fluorescence microscopy; format: cell-based, Escherichia coli; settings: for Nucleoid conformation: H33342 staining, BL21 (Fig 6, S6 Fig)
# Description: as §2
# A culture sample also was left untreated (UT) for comparison. Cell samples were then collected after further incubation for 20, 40 or 60 min, washed with PBS, stained with H33342, and mounted on glass slides under agarose pads for fluorescence microscopy using a 40X oil immersion lens. The exposure time for each image was automatically set by microscope software. Scale bar = 20 μm. (TIF) Click here for additional data file.
# [4] = tested on: E. coli BL21; assay: Growth analysis (culture OD600); format: cell-based, Escherichia coli
# Description: as §1
# [5] = tested on: σ32 transcription factor
# Description: E, Western blot analysis of σ32 levels in cells following exposure to the indicated antibiotics for 20, 60, or 120 min as indicated. Cell extract from a non-induced culture was loaded in lane 1.
# Equal volumes of cell cultures were centrifuged, and cell pellets were resuspended directly in 2X Laemmli sample buffer at a concentration of 5 OD600 units per ml based on culture OD600 at the time of sampling. To reduce viscosity, samples were sonicated using a cuphorn sonicator or passed through a 27-gauge needle prior to loading on SDS-polyacrylamide gels. Proteins were visualized either by staining gels directly with Coomassie Blue or after semi-dry electroblotting to immobilon membranes for Western blot analysis. Anti-σ32 monoclonal antibodies were purchased from BioLegend, San Diego, CA. Rabbit anti-DnaK and DnaJ serum was kindly provided by B. Bukau. Anti-GroEL antibodies were purchased from Sigma-Aldrich.
# An aliquot of culture also was left untreated (NI) for comparison. Cultures were then incubated at 37°C with shaking, and cell growth was monitored by measuring culture optical density at 600 nm (OD600) using a microplate reader. B, samples of each culture were collected at 20, 60 and 90 min after treatment, and cells were lysed in 2X SDS-PAGE sample buffer at a concentration of 1.2 OD600 units per ml. Equal volumes of each sample were then analyzed by Western blotting, using antibodies against σ32 and σ70. Only the 20 min and 60 min samples of the Spectinomycin-treated culture were analyzed.
# [6] = tested on: E. coli BL21 nucleoids; set-up: method as in PMID 25250841; settings: transcription inhibited; cited from earlier work
# [7] = tested on: E. coli DnaK; settings: by comparison with NR and σ32 peptides; cited from earlier work
molecule,measurement,setting,value
"O=C(N[C@H](CO)[C@H](O)c1ccc([N+](=O)[O-])cc1)C(Cl)Cl [Cm, chloramphenicol]",Cell viability following growth arrest,"[1]; 30 μg/ml, samples at 0, 1, 2 and 5 h (Fig 2E)",remained viable for several hours
same,Cell viability during exposure,"[1]; Cm 30 μg/ml, 30 or 60 min (S1 Fig)",fully retained
same,Cell viability at higher concentration,"[1]; higher concentration than 30 μg/ml (200 μg/ml, Fig 2E)",increasingly toxic
same,Exposure time set automatically by camera software (H33342 fluorescence),"[2]; 10 min after ARF48 induction or 60 min after Cm 30 or 200 μg/ml, non-induced culture 1.7 s",0.22 s
same,Uptake of H33342 following exposure,[2]; Cm 30 or 200 μg/ml (Fig 6),enhanced
same,Nucleoid conformation,[3],radially condensed
same,Time until nucleoids radially condensed,[3]; after induction of expression or after exposure,30 to 45 min
"NC[C@H]1O[C@H](O[C@H]2[C@H](O)[C@@H](O[C@H]3O[C@H](CO)[C@@H](O)[C@H](N)[C@H]3O)[C@H](N)C[C@@H]2N)[C@H](O)[C@@H](O)[C@@H]1O [Kan, kanamycin]",Cell division,[4]; low dose 3 μg/ml,slowed but did not completely halt cell division
same,Decrease of cell viability,"[1]; first hour of exposure, Kan 50 μg/ml (S1 Fig)",5–6 orders of magnitude
same,Nucleoid conformation,[3],only transient
same,σ32 concentration over time,"[5]; 20, 60 or 120 min of exposure (Fig 1E)",remained elevated
same,σ32 level in cells,"[5]; 60 min after exposure, range of doses (Fig 1D)",accumulated to high relative concentration
"Cc1c2c(c(O)c3c(O)cccc13)C(=O)[C@]1(O)C(=O)C(C(N)=O)=C(O)[C@@H](N(C)C)[C@@H]1C2 [aTc, anhydrotetracycline]",Cell growth,[4]; 0.2 μg/ml in culture medium,not inhibited; also recorded: does not inhibit growth
CO[C@H]1/C=C/O[C@@]2(C)Oc3c(C)c(O)c4c(O)c(c(/C=N/N5CCN(C)CC5)c(O)c4c3C2=O)NC(=O)/C(C)=C\C=C\[C@H](C)[C@H](O)[C@@H](C)[C@@H](O)[C@@H](C)[C@H](OC(C)=O)[C@@H]1C [rifampicin],Nucleoid conformation,[6],transient condensation
CN[C@@H]1[C@H](O)[C@H](NC)[C@H]2O[C@@]3(O)C(=O)C[C@@H](C)O[C@H]3O[C@@H]2[C@H]1O [spectinomycin],σ32 levels following exposure,"[5]; non-resistant cells, 20 μg/ml, 20 and 60 min (S2 Fig)",unchanged
Kemptide,Recognition by DnaK (earlier studies),[7],poorly recognized
